Assays:
[1] = Compound was evaluated for the inhibition of antibody (Antibody 48G7) catalyzed reaction
[2] = Kinetic parameter of antibody 48G7 in 10 mM Tris HCl, 50 mM NaCl, pH 8.27
[3] = Dissociation constant from ESR titration experiments; type: physicochemical

k cat [2] [s⁻¹] | Km [2] [µM] | Structure (SMILES) | Ki [1] [µM] | Kd [3] [µM]
– | – | Cc1cccc(P(=O)(O)O)c1[N+](=O)[O-] [METHYLNITROPHENYLPHOSPHONATE] | 0.56 | –
0.0633 | – | CC(=O)Oc1ccc([N+](=O)[O-])cc1 | – | –
0.437 | 360 | COC(=O)CCCOC(=O)Oc1ccc([N+](=O)[O-])cc1 | – | –
– | – | CC1(C)CC(OP(=O)(O)Oc2ccc([N+](=O)[O-])cc2)C(C)(C)N1[O] (stereo not given) | – | 6.4
0.123 | 430 | COC(=O)Oc1ccc([N+](=O)[O-])cc1 | – | –
0.367 | 300 | COC(=O)CCCC(=O)Oc1ccc([N+](=O)[O-])cc1 | – | –
– | – | CC1(C)CC(OP(=O)(O)Oc2ccc([N+](=O)[O-])cc2)CC(C)(C)N1[O] | – | 4.3

Source: ChEMBL document CHEMBL1127186, “Probing a catalytic antibody active site using spin-labelled haptens” (Bioorg Med Chem Lett, 1993)
